How the values were obtained:
Assay type in all cases: in vivo, postmenopausal breast cancer patients
[1] = system: endothelin-1 (ET-1); experiment: Effect on endothelin-1 level in plasma of patients treated orally for one year; details: for Plasma level of endothelin-1, at 6 months: at 6 months of oral treatment (toremifene 40 mg/d, tamoxifen 20 mg/d, estradiol valerate 2 mg/d); for Plasma level of endothelin-1, at 6 months / Plasma level of endothelin-1, at 12 months / Plasma level of endothelin-1, before treatment: mean±SE; for Plasma level of endothelin-1, at 12 months: at 12 months of oral treatment (toremifene 40 mg/d, tamoxifen 20 mg/d, estradiol valerate 2 mg/d); for Plasma level of endothelin-1, before treatment: baseline before treatment, breast cancer patients; for Effect on endothelin-1 level in patients during the treatment (in words): oral treatment for one year
Experimental: Effect of toremifene on endothelin-1 level in plasma
(§1) Postmenopausal breast cancer patients were treated with 40 mg/d toremifene (Fareston™) (n=19), 20 mg/d tamoxifen (Tadex™) (n=25) or 2 mg/d estradiol valerate (Progynova™)(n=14) orally for one year. The 44 patients of the antiestrogen groups had been operated on breast cancer 6-8 weeks before the trial. Plasma samples (10 ml) were collected before and at 6 and 12 months of each regimen, and plasma levels of endothelin-1 (ET-1) and nitrite/nitrate (NOx) were measured by established methods. The data (presented as mean±SE) were analyzed by two-way analysis of variance (ANOVA) for repeated measures. When differences were indicated by ANOVA, their significances at individual timepoints were calculated by means of a t-test for independent means (between-groups comparison) or a t-test for dependent means (comparison to baseline within a single group). For determination of correlation between two variables, the Pearsson coefficient was calculated.

[2] = system: nitrite/nitrate (NOx); experiment: Plasma nitrite/nitrate (NOx) level in patients treated orally for one year; details: mean±SE; for Plasma level of nitrite/nitrate, at 6 months: at 6 months of oral treatment; for Plasma level of nitrite/nitrate, at 12 months: at 12 months of oral treatment; for Plasma level of nitrite/nitrate, before treatment: baseline before treatment, breast cancer patients
Experimental: as §1

[3] = Occurrence of thromboses and cerebrovascular accidents in three clinical adjuvant trials; details: for Cerebrovascular accidents (number of occurrences) / Deep vein thromboses (number of occurrences): oral toremifene 40 mg/d (1120 patients) vs oral tamoxifen 20 mg/day (1110 patients) for 3 years, serious events
Experimental: Occurrence of thromboses and cerebrovascular accidents
In three clinical adjuvant trials effects of oral toremifene 40 mg/d was compared to oral tamoxifen 20 mg/day for 3 years in postmenopausal breast cancer patients. The occurrence of serious deep vein thromboses and serious cerebrovascular accidents in toremifen and tamoxifen groups are summarized in Table 2.

SMILES	Plasma level of endothelin-1, at 6 months [1]	Plasma level of endothelin-1, at 12 months [1]	Plasma level of endothelin-1, before treatment [1]	Plasma level of nitrite/nitrate, at 6 months [2]	Plasma level of nitrite/nitrate, at 12 months [2]	Plasma level of nitrite/nitrate, before treatment [2]	Effect on endothelin-1 level in patients during the treatment (in words) [1]	Cerebrovascular accidents (number of occurrences) [3]	Deep vein thromboses (number of occurrences) [3]	Vascular complications (deep vein thrombosis and cerebrovascular events), comparison in words ([3]; tamoxifen treated patients compared with toremifene treated patients)
CCCCC(=O)O[C@H]1CC[C@H]2[C@@H]3CCc4cc(O)ccc4[C@H]3CC[C@]12C [Estrogen, estradiol valerate]	2.7 ± 0.2 ng/L	2.7 ± 0.2 ng/L	2.8 ± 0.2 ng/L	21.5 ± 3.2 µmol/L	18.5 ± 2.7 µmol/L	25.8 ± 3.7 µmol/L				
CC/C(=C(\c1ccccc1)c1ccc(OCCN(C)C)cc1)c1ccccc1 [Tamoxifen, tamoxifen]	3.5 ± 0.2 ng/L	3.2 ± 0.2 ng/L	3.5 ± 0.2 ng/L	22.8 ± 4.0 µmol/L	20.4 ± 2.5 µmol/L	20.6 ± 2.3 µmol/L	no effect	14	13	clearly more vascular complications
CN(C)CCOc1ccc(/C(=C(/CCCl)c2ccccc2)c2ccccc2)cc1 [Toremifene, toremifene]	2.6 ± 0.2 ng/L	2.6 ± 0.2 ng/L	3.0 ± 0.2 ng/L	21.0 ± 2.5 µmol/L	21.6 ± 3.1 µmol/L	23.4 ± 4.0 µmol/L	significantly lowered endothelin-1 level	2	7	

Source: patent US6569904B1, “Agent for lowering endothelin levels” (Orion Corporation, priority 1998, dated 2003)
